Experimental data: PubChem BioAssay AID2060908 (Molecular Pharmacology Branch, DTP, NCI, 2025)

Test system: 186277-243-T-J2-PDC complex spheroids, viability
Experiment: Anticancer human tumor 186277-243-T-J2-PDC patient-derived colon adenocarcinoma cell line growth inhibition [RAS]
Conditions: for viability, T/C: stronger effect = lower value; active = viability on the fitted dose curve at most 10% of control; inactive = the rest
In short: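 Tumour cells grown as complex spheroids with HUVEC endothelial cells and mesenchymal stem cells, treated with RAS pathway inhibitor combinations. Each agent spans half-log steps from near clinical Cmax, or 10 microM where Cmax is unknown.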

[1] = curve of first compound, second compound 0.0316 µM
[2] = curve of first compound, second compound 0.1 µM
[3] = curve of first compound, second compound 0.316 µM
[4] = curve of first compound, second compound 1 µM
[5] = second compound 0.0316 µM, first compound 0.000949 µM
[6] = second compound 0.0316 µM, first compound 0.003 µM
[7] = second compound 0.0316 µM, first compound 0.00949 µM
[8] = second compound 0.0316 µM, first compound 0.03 µM
[9] = second compound 0.0316 µM, first compound 0.0949 µM
[10] = second compound 0.0316 µM, first compound 0.3 µM
[11] = second compound 0.1 µM, first compound 0.000949 µM
[12] = second compound 0.1 µM, first compound 0.003 µM
[13] = second compound 0.1 µM, first compound 0.00949 µM
[14] = second compound 0.1 µM, first compound 0.03 µM
[15] = second compound 0.1 µM, first compound 0.0949 µM
[16] = second compound 0.1 µM, first compound 0.3 µM
[17] = second compound 0.316 µM, first compound 0.000949 µM
[18] = second compound 0.316 µM, first compound 0.003 µM
[19] = second compound 0.316 µM, first compound 0.00949 µM
[20] = second compound 0.316 µM, first compound 0.03 µM
[21] = second compound 0.316 µM, first compound 0.0949 µM
[22] = second compound 0.316 µM, first compound 0.3 µM
[23] = second compound 1 µM, first compound 0.000949 µM
[24] = second compound 1 µM, first compound 0.003 µM
[25] = second compound 1 µM, first compound 0.00949 µM
[26] = second compound 1 µM, first compound 0.03 µM
[27] = second compound 1 µM, first compound 0.0949 µM
[28] = second compound 1 µM, first compound 0.3 µM
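Also: spheroids exposed to compounds for 7 days before viability read.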

CC(C)n1nc(-c2ccc3oc(N)nc3c2)c2c(N)ncnc21 + CCn1c(-c2cc(N3CCN(C)CC3)cnc2C(C)OC)c2c3cc(ccc31)-c1csc(n1)CC(NC(=O)C1CC1C)C(=O)N1CCCC(N1)C(=O)OCC(C)(C)C2
27.5 nM: IC50 (curve of first compound, second compound 0.003 µM)
< 0.316 nM: IC50 (curve of first compound, second compound 0.00949 µM) | IC50 (curve of first compound, second compound 0.03 µM) | IC50 (curve of first compound, second compound 0.0949 µM) | IC50 (curve of first compound, second compound 0.3 µM)
active: viability, T/C (second compound 0.00949 µM, first compound 0.1 µM) 5.22% | viability, T/C (second compound 0.03 µM, first compound 0.00316 µM) 9.71% | viability, T/C (second compound 0.03 µM, first compound 0.01 µM) 6.52% | viability, T/C (second compound 0.03 µM, first compound 0.0316 µM) 4.01% | viability, T/C (second compound 0.03 µM, first compound 0.1 µM) 2.6% | viability, T/C (second compound 0.0949 µM, first compound 0.000316 µM) 7.46% | viability, T/C (second compound 0.0949 µM, first compound 0.001 µM) 6.37% | viability, T/C (second compound 0.0949 µM, first compound 0.00316 µM) 5.35% | viability, T/C (second compound 0.0949 µM, first compound 0.01 µM) 3.33% | viability, T/C (second compound 0.0949 µM, first compound 0.0316 µM) 2.32% | viability, T/C (second compound 0.0949 µM, first compound 0.1 µM) 1.41% | viability, T/C (second compound 0.3 µM, first compound 0.000316 µM) 5.75% | viability, T/C (second compound 0.3 µM, first compound 0.001 µM) 5.69% | viability, T/C (second compound 0.3 µM, first compound 0.00316 µM) 4.23% | viability, T/C (second compound 0.3 µM, first compound 0.01 µM) 2.81% | viability, T/C (second compound 0.3 µM, first compound 0.0316 µM) 2.02% | viability, T/C (second compound 0.3 µM, first compound 0.1 µM) 1.43%
46.6 nM: IC50 (curve of first compound, second compound 0.000949 µM)
inactive: viability, T/C (second compound 0.000949 µM, first compound 0.000316 µM) 104% | viability, T/C (second compound 0.000949 µM, first compound 0.001 µM) 109% | viability, T/C (second compound 0.000949 µM, first compound 0.00316 µM) 87.9% | viability, T/C (second compound 0.000949 µM, first compound 0.01 µM) 69.8% | viability, T/C (second compound 0.000949 µM, first compound 0.0316 µM) 62.2% | viability, T/C (second compound 0.000949 µM, first compound 0.1 µM) 34.8% | viability, T/C (second compound 0.003 µM, first compound 0.000316 µM) 106% | viability, T/C (second compound 0.003 µM, first compound 0.001 µM) 104% | viability, T/C (second compound 0.003 µM, first compound 0.00316 µM) 88.3% | viability, T/C (second compound 0.003 µM, first compound 0.01 µM) 72.9% | viability, T/C (second compound 0.003 µM, first compound 0.0316 µM) 46.7% | viability, T/C (second compound 0.003 µM, first compound 0.1 µM) 20.1% | viability, T/C (second compound 0.00949 µM, first compound 0.000316 µM) 49.4% | viability, T/C (second compound 0.00949 µM, first compound 0.001 µM) 47.4% | viability, T/C (second compound 0.00949 µM, first compound 0.00316 µM) 37.7% | viability, T/C (second compound 0.00949 µM, first compound 0.01 µM) 30.8% | viability, T/C (second compound 0.00949 µM, first compound 0.0316 µM) 12.7% | viability, T/C (second compound 0.03 µM, first compound 0.000316 µM) 14.8% | viability, T/C (second compound 0.03 µM, first compound 0.001 µM) 12.5%

CCc1c2c(nc3ccc(O)cc13)-c1cc3c(c(=O)n1C2)COC(=O)[C@]3(O)CC + C#Cc1c(F)ccc2cc(O)cc(-c3ncc4c(N5CC6CCC(C5)N6)nc(OCC56CCCN5CC(F)C6)nc4c3F)c12
inactive: viability, T/C [5] 72.5% | viability, T/C [6] 40.5% | viability, T/C [7] 36.7% | viability, T/C [8] 20.9% | viability, T/C [9] 8.73% | viability, T/C [11] 35.5% | viability, T/C [12] 21.9% | viability, T/C [13] 16.6% | viability, T/C [14] 12.2% | viability, T/C [17] 14.3% | viability, T/C [18] 14.1% | viability, T/C [19] 9.89%
2.64 nM: IC50 [1]
active: viability, T/C [10] 5.87% | viability, T/C [15] 5.42% | viability, T/C [16] 6.04% | viability, T/C [20] 7.42% | viability, T/C [21] 5.03% | viability, T/C [22] 3.68% | viability, T/C [23] 7.55% | viability, T/C [24] 8.61% | viability, T/C [25] 8.45% | viability, T/C [26] 6.92% | viability, T/C [27] 4.24% | viability, T/C [28] 3.83% | viability, T/C (second compound 3.16 µM, first compound 0.000949 µM) 8.46% | viability, T/C (second compound 3.16 µM, first compound 0.003 µM) 7.85% | viability, T/C (second compound 3.16 µM, first compound 0.00949 µM) 7.31% | viability, T/C (second compound 3.16 µM, first compound 0.03 µM) 5.89% | viability, T/C (second compound 3.16 µM, first compound 0.0949 µM) 4.55% | viability, T/C (second compound 3.16 µM, first compound 0.3 µM) 2.75% | viability, T/C (second compound 10 µM, first compound 0.000949 µM) 6.68% | viability, T/C (second compound 10 µM, first compound 0.003 µM) 6.39% | viability, T/C (second compound 10 µM, first compound 0.00949 µM) 6.05% | viability, T/C (second compound 10 µM, first compound 0.03 µM) 5.42% | viability, T/C (second compound 10 µM, first compound 0.0949 µM) 3.58% | viability, T/C (second compound 10 µM, first compound 0.3 µM) 2.72%
< 0.949 nM: IC50 [2] | IC50 [3] | IC50 [4] | IC50 (curve of first compound, second compound 3.16 µM) | IC50 (curve of first compound, second compound 10 µM)

CCC(CC)c1cc(NC2CCC(N)C2)n2nccc2n1 (stereo not drawn)
inactive: viability, T/C (compound 0.0316 µM) 98.2% [middle of 4 runs] | viability, T/C (compound 0.1 µM) 94.7% [middle of 4 runs] | viability, T/C (compound 0.316 µM) 90.1% [middle of 4 runs] | viability, T/C (compound 1 µM) 91.8% [middle of 4 runs]
1.77 µM [middle of 4 runs]: IC50 (curve of compound)
active: viability, T/C (compound 10 µM) 0.37% [middle of 4 runs]
5.37% [middle of 4 runs]: viability, T/C (compound 3.16 µM)

CC1(C)CCC(Nc2ncc(C(F)(F)F)c(-c3c[nH]c4c(P(C)(C)=O)c(C#N)ccc34)n2)CN1 (stereo not drawn) + C=CC(=O)N1CCN(c2nc(OCC3CCCN3C)nc3c(F)c(-c4nc(N)cc(C)c4C(F)(F)F)c(Cl)cc23)C(C)C1
inactive: viability, T/C (second compound 0.00316 µM, first compound 0.000949 µM) 94.9% | viability, T/C (second compound 0.00316 µM, first compound 0.003 µM) 98.4% | viability, T/C (second compound 0.00316 µM, first compound 0.00949 µM) 143% | viability, T/C (second compound 0.00316 µM, first compound 0.03 µM) 66.8% | viability, T/C (second compound 0.00316 µM, first compound 0.0949 µM) 75.5% | viability, T/C (second compound 0.00316 µM, first compound 0.3 µM) 56.9% | viability, T/C (second compound 0.01 µM, first compound 0.000949 µM) 109% | viability, T/C (second compound 0.01 µM, first compound 0.003 µM) 115% | viability, T/C (second compound 0.01 µM, first compound 0.00949 µM) 146% | viability, T/C (second compound 0.01 µM, first compound 0.03 µM) 58.6% | viability, T/C (second compound 0.01 µM, first compound 0.0949 µM) 60.2% | viability, T/C (second compound 0.01 µM, first compound 0.3 µM) 66.4% | viability, T/C [5] 101% | viability, T/C [6] 118% | viability, T/C [7] 135% | viability, T/C [8] 85.4% | viability, T/C [9] 66.7% | viability, T/C [10] 65.9% | viability, T/C [11] 96.6% | viability, T/C [12] 120% | viability, T/C [13] 120% | viability, T/C [14] 71.4% | viability, T/C [15] 69.7% | viability, T/C [16] 63.2% | viability, T/C [17] 103% | viability, T/C [18] 96% | viability, T/C [19] 98.5% | viability, T/C [20] 82.2% | viability, T/C [21] 65% | viability, T/C [22] 62.1% | viability, T/C [23] 112% | viability, T/C [24] 102% | viability, T/C [25] 114% | viability, T/C [26] 70.8% | viability, T/C [27] 64.3% | viability, T/C [28] 68.5%
> 300 nM: IC50 (curve of first compound, second compound 0.00316 µM) | IC50 (curve of first compound, second compound 0.01 µM) | IC50 [1] | IC50 [2] | IC50 [3] | IC50 [4]
